Test results: patent US6355799B1, “Substituted benzene compounds, process for their preparation, and herbicidal and defoliant compositions containing them” (ISK Americas Incorporated, priority 1997, dated 2002)

Tests used:
Format in all cases: in vivo
[1] = test system: redroot pigweed (Amaranthus retroflexus, AMARE); assay: Pre-emerge test, greenhouse herbicide activity screening; details: pre-emerge, 14 days after application, rating scale 0-100
Summary of the method: (§1)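 Plants grown in 10 cm pots of sandy loam mix received acetone-dissolved compounds through a moving flat-fan nozzle. Doses ranged from 15 to 1000 g ai/ha. Pre-emerge pots were seeded one day earlier, post-emerge pots 8–21 days earlier. Fourteen days on, each pot was graded 0–100 for damage.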

[2] = test system: barnyardgrass (Echinochloa crus-galli, ECHCG); assay: as above; details: pre-emerge, 14 days after application, rating scale 0-100
Summary of the method: (§2)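 Compounds in acetone were track-sprayed at 187 l/ha, 15–1000 g ai/ha, onto sandy loam pots. Pre-emerge seeds were sown one day before spraying, with surface watering afterwards. Post-emerge plants were at the 2–3 leaf stage and sprayed with 0.25% v/v non-ionic surfactant. Injury was rated 0–100 at 14 days.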

[3] = test system: green foxtail (Setaria viridis, SETVI); assay: as above; details: pre-emerge, 14 days after application, rating scale 0-100
Summary of the method: as §2

[4] = test system: ivyleaf morningglory (Ipomoea hederacea, IPOHE); assay: as above; details: pre-emerge, 14 days after application, rating scale 0-100
Summary of the method: as §2

[5] = test system: johnsongrass (Sorghum halepense, SORHA); assay: as above; details: pre-emerge, 14 days after application, rating scale 0-100
Summary of the method: as §2

[6] = test system: lambsquarters (Chenopodium album, CHEAL); assay: as above; details: pre-emerge, 14 days after application, rating scale 0-100
Summary of the method: as §2

[7] = test system: large crabgrass (Digitaria sanguinalis, DIGSA); assay: as above; details: pre-emerge, 14 days after application, rating scale 0-100
Summary of the method: as §2

[8] = test system: sicklepod (Cassia obtusifolia, CASOB); assay: as above; details: pre-emerge, 14 days after application, rating scale 0-100
Summary of the method: as §2

[9] = test system: velvetleaf (Abutilon theophrasti, ABUTH); assay: as above; details: pre-emerge, 14 days after application, rating scale 0-100
Summary of the method: as §2

[10] = test system: field corn (Zea mays L., var. Dekalb 535, CORN); assay: Pre-emerge test, crop safety; details: pre-emerge, 14 days after application, rating scale 0-100
Summary of the method: (§3)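 Fourteen days after spraying, crop and weed injury was graded visually from 0, no effect, to 100, every plant dead. Test substances were dissolved in acetone and applied at 15–1000 g ai/ha with a flat-fan nozzle. Application was either pre-emergence, one day after sowing, or post-emergence at the 2–3 leaf stage.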

[11] = test system: upland rice (Oryza sp., var. Tebonnet, RICE); assay: Pre-emerge test, crop safety; details: pre-emerge, 14 days after application, rating scale 0-100
Summary of the method: as §3

[12] = test system: barnyardgrass (Echinochloa crus-galli, ECHCG); assay: Post-emerge test, greenhouse herbicide activity screening; details: post-emerge, 14 days after application, rating scale 0-100
Summary of the method: as §1

[13] = test system: green foxtail (Setaria viridis, SETVI); assay: as above; details: post-emerge, 14 days after application, rating scale 0-100
Summary of the method: as §1

[14] = test system: ivyleaf morningglory (Ipomoea hederacea, IPOHE); assay: as above; details: post-emerge, 14 days after application, rating scale 0-100
Summary of the method: as §1

[15] = test system: johnsongrass (Sorghum halepense, SORHA); assay: as above; details: post-emerge, 14 days after application, rating scale 0-100
Summary of the method: as §1

[16] = test system: lambsquarters (Chenopodium album, CHEAL); assay: as above; details: post-emerge, 14 days after application, rating scale 0-100
Summary of the method: as §1

[17] = test system: large crabgrass (Digitaria sanguinalis, DIGSA); assay: as above; details: post-emerge, 14 days after application, rating scale 0-100
Summary of the method: as §1

[18] = test system: redroot pigweed (Amaranthus retroflexus, AMARE); assay: as above; details: post-emerge, 14 days after application
Summary of the method: as §1

[19] = test system: sicklepod (Cassia obtusifolia, CASOB); assay: as above; details: post-emerge, 14 days after application, rating scale 0-100
Summary of the method: as §1

[20] = test system: velvetleaf (Abutilon theophrasti, ABUTH); assay: as above; details: post-emerge, 14 days after application, rating scale 0-100
Summary of the method: as §1

[21] = test system: field corn (Zea mays L., var. Dekalb 535, CORN); assay: Post-emerge test, crop safety; details: post-emerge, 14 days after application, rating scale 0-100
Summary of the method: as §2

[22] = test system: upland rice (Oryza sp., var. Tebonnet, RICE); assay: Post-emerge test, crop safety; details: post-emerge, 14 days after application, rating scale 0-100
Summary of the method: as §2

Structure (SMILES): COc1c(Cl)cc(F)c(-n2c(=O)cc(C(F)(F)F)n(C)c2=O)c1Sc1ccc2ccccc2c1 [17-4]
- phytotoxicity rating AMARE ([1]; 63 g ai/ha): 30
- phytotoxicity rating AMARE ([1]; 250 g ai/ha): 100
- phytotoxicity rating ECHCG ([2]; 63 g ai/ha): 0
- phytotoxicity rating ECHCG ([2]; 250 g ai/ha): 0
- phytotoxicity rating SETVI ([3]; 63 g ai/ha): 0
- phytotoxicity rating SETVI ([3]; 250 g ai/ha): 20
- phytotoxicity rating IPOHE ([4]; 63 g ai/ha): 0
- phytotoxicity rating IPOHE ([4]; 250 g ai/ha): 10
- phytotoxicity rating SORHA ([5]; 63 g ai/ha): 0
- phytotoxicity rating SORHA ([5]; 250 g ai/ha): 0
- phytotoxicity rating CHEAL ([6]; 63 g ai/ha): 20
- phytotoxicity rating CHEAL ([6]; 250 g ai/ha): 70
- phytotoxicity rating DIGSA ([7]; 63 g ai/ha): 0
- phytotoxicity rating DIGSA ([7]; 250 g ai/ha): 10
- phytotoxicity rating CASOB ([8]; 63 g ai/ha): 0
- phytotoxicity rating CASOB ([8]; 250 g ai/ha): 10
- phytotoxicity rating ABUTH ([9]; 63 g ai/ha): 0
- phytotoxicity rating ABUTH ([9]; 250 g ai/ha): 60
- phytotoxicity rating CORN ([10]; 63 g ai/ha): 0
- phytotoxicity rating CORN ([10]; 250 g ai/ha): 0
- phytotoxicity rating RICE ([11]; 63 g ai/ha): 0
- phytotoxicity rating RICE ([11]; 250 g ai/ha): 10
- Post-emerge Herbicidal Activity ECHCG (phytotoxicity rating) ([12]; 63 g ai/ha): 0
- Post-emerge Herbicidal Activity ECHCG (phytotoxicity rating) ([12]; 250 g ai/ha): 0
- Post-emerge Herbicidal Activity SETVI (phytotoxicity rating) ([13]; 63 g ai/ha): 0
- Post-emerge Herbicidal Activity SETVI (phytotoxicity rating) ([13]; 250 g ai/ha): 0
- Post-emerge Herbicidal Activity IPOHE (phytotoxicity rating) ([14]; 63 g ai/ha): 20
- Post-emerge Herbicidal Activity IPOHE (phytotoxicity rating) ([14]; 250 g ai/ha): 80
- Post-emerge Herbicidal Activity SORHA (phytotoxicity rating) ([15]; 63 g ai/ha): 0
- Post-emerge Herbicidal Activity SORHA (phytotoxicity rating) ([15]; 250 g ai/ha): 0
- Post-emerge Herbicidal Activity CHEAL (phytotoxicity rating) ([16]; 63 g ai/ha): 20
- Post-emerge Herbicidal Activity CHEAL (phytotoxicity rating) ([16]; 250 g ai/ha): 40
- Post-emerge Herbicidal Activity DIGSA (phytotoxicity rating) ([17]; 63 g ai/ha): 0
- Post-emerge Herbicidal Activity DIGSA (phytotoxicity rating) ([17]; 250 g ai/ha): 0
- Post-emerge Herbicidal Activity AMARE (phytotoxicity rating) ([18]; 63 g ai/ha, rating scale 0-100 (0 no damage, 100 complete death)): 20
- Post-emerge Herbicidal Activity AMARE (phytotoxicity rating) ([18]; 250 g ai/ha, rating scale 0-100): 70
- Post-emerge Herbicidal Activity CASOB (phytotoxicity rating) ([19]; 63 g ai/ha): 10
- Post-emerge Herbicidal Activity CASOB (phytotoxicity rating) ([19]; 250 g ai/ha): 20
- Post-emerge Herbicidal Activity ABUTH (phytotoxicity rating) ([20]; 63 g ai/ha): 35
- Post-emerge Herbicidal Activity ABUTH (phytotoxicity rating) ([20]; 250 g ai/ha): 70
- Post-emerge Herbicidal Activity CORN (crop damage rating) ([21]; 63 g ai/ha): 0
- Post-emerge Herbicidal Activity CORN (crop damage rating) ([21]; 250 g ai/ha): 0
- Post-emerge Herbicidal Activity RICE (crop damage rating) ([22]; 63 g ai/ha): 0
- Post-emerge Herbicidal Activity RICE (crop damage rating) ([22]; 250 g ai/ha): 0
